For the assay the following is noted: 0.15% of sorbic acid in squalane/cyclodextrin composition.

Each structure is given as a SMILES string.

In the case of `C/C=C/C=C/C(=O)O` [sorbic acid], the anti-acne effect entry is “does not give any anti-acne effect”.

(Values after patent publication US6406708B1, “Therapeutic compositions” (Interhealth AB, priority 1998, dated 2002).)
